Experimental data from publication PMC9818988, “SR Protein Kinase 1 Inhibition by TAF15” (Cells, 2022).
Values belong to the molecule of their own block, whether it stands above or below them.

Legend:
SRPK1 [1] = test: In vitro kinase inhibition assay: phosphorylation of GST-LBRNt(62–92) by GST-SRPK1; assay type: biochemical; conditions: for Effect of TAF15 fusion proteins on SRPK1 activity (phosphorylation of GST-LBRNt(62–92)): 1, 2, 4, 6, 8 μg GST-TAF15, 1.5, 3, 6, 10, 15 μg GST-TAF15-RGG, 2, 4, 8, 12, 16 μg GST-TAF15(1-320), 25 μL, [γ-32P]ATP, Cherenkof counting, two independent experiments; for Effect of TAF15 fusion proteins on SRPK1 activity (phosphorylation of GST-LBRNt(62–92)) / Inhibition of SRPK1 activity (phosphorylation of GST-LBRNt(62–92) by GST-SRPK1): 30 °C, 30 min; for Inhibition of SRPK1 activity (phosphorylation of GST-LBRNt(62–92) by GST-SRPK1): peptide 0.1, 0.2, 0.3, 0.4 and 0.5 mM, 25 μM ATP, autoradiography, bands counted, means ± SE of two independent experiments (Figure 8); for Relative inhibitory activity on SRPK1 among the three RGG peptides (proportional to number of RGG repeats): peptide 0.1–0.5 mM, substrate GST-LBRNt(62–92), two independent experiments (Figure 8B)
Description: (§1) Kinase assays were carried out at 30 °C in a total volume of 25 μL containing 12 mM Hepes pH 7.5, 10 mM MgCl2, 25 μM ATP, 1–3 μg of the appropriate substrate (GST-LBRNt(62–92) or GST-TAF15 or His-TAF15), and 1–2 μg GST-SRPK1. For the inhibition assays, GST-SRPK1 was incubated with GST-LBRNt(62–92) under the assay conditions in the presence of increasing concentrations of GST-TAF15, GST-TAF15-RGG, and GST-TAF15(1–320) or Nucl, SAFA, and A2B1 peptides, as indicated. Nucl ([…]), SAFA ([…]) and A2B1 ([…]) peptides, comprising the RGG repeats of nucleolin, HNRPU (SAFA), and HNRNPA2B1, respectively, were provided by GeneCust, Boynes, France. The samples were incubated for 30 min, and the reaction was stopped by adding 6 μL of 5 × SDS sample buffer and heating at 95 °C for 3 min. Phosphoproteins were detected via autoradiography using Super RX (a Fuji medical X-ray film), and signals were quantified by excising the radioactive bands from the gel and scintillation counting. p-values were determined using a two-tailed, unpaired student’s t-test.

SRPK1 [2] = test: Pull-down of SRPK1 from HeLa cell extracts with immobilized GST-TAF15 fusion proteins; assay type: binding; conditions: 150 mM NaCl, 1% Triton X-100, 60 min, room temperature; Western blot with anti-SRPK1
Description: Incubation of GST, GST-TAF15, GST-TAF15(1–320), and GST-TAF15-RGG (2–3 μg each) immobilized on glutathione-Sepharose beads with HeLa cell extracts (∼200 μg of total protein) was performed in 50 mm Tris-HCl, pH 7.5, 150 mm NaCl, 1% Triton X-100, and 0.5 mm PMSF (cell extraction buffer) in a total volume of 0.5 mL for 60 min at room temperature. Bound SRPK1 was analyzed on 10% SDS-polyacrylamide gels and detected by Western blotting using the anti-SRPK1 monoclonal antibody (611072, BD Biosciences, San Jose, CA, USA), an alkaline phosphatase-coupled goat anti-mouse secondary antibody, and a 5-bromo-4-chloro-3-indolyl phosphate/nitro blue tetrazolium substrate.

SRPK1 [3] = test: In vitro phosphorylation of TAF15 as substrate by GST-SRPK1; assay type: biochemical; conditions: bacterially produced GST-SRPK1; GST-LBRNt(62–92) as positive substrate; autoradiography
Description: as §1

SRPK1 [4] = test: Pull-down of His-TAF15 with GST-SRPK1 immobilized on glutathione-Sepharose beads; assay type: binding; conditions: 60 min, room temperature, Coomassie blue staining
Description: Incubation of GST and GST-SRPK1 (2–3 μg each) immobilized on glutathione-Sepharose beads with His-TAF15 (2 μg) was performed in 20 mm Hepes, pH 7.5, 50 mM NaCl, and 1% Triton X-100 in a total volume of 0.5 mL. Similar incubations were also performed in the presence of 150 and 300 mM NaCl to test the stringency of the interaction. The incubations were carried out for 60 min at room temperature. The beads were harvested, washed three times with 500 μL of binding buffer, and resuspended in 25 μL of SDS sample buffer. Bound His-TAF15 was analyzed on 10% SDS-polyacrylamide gels and detected by Coomassie Blue staining.

Inhibition of SRPK1 activity (phosphorylation of GST-LBRNt(62–92) by GST-SRPK1) (SRPK1 [1]): could inhibit SRPK1
Relative inhibitory activity on SRPK1 among the three RGG peptides (proportional to number of RGG repeats) (SRPK1 [1]): most potent inhibitory activity
Molecule: RGGGRGGFGGRGGGRGGRGGFGGRGRGGFGGRGGFRGGRGG [Nucl, peptide comprising the RGG repeats of nucleolin, provided by GeneCust]

Inhibition of SRPK1 activity (phosphorylation of GST-LBRNt(62–92) by GST-SRPK1) (SRPK1 [1]): could inhibit SRPK1
Molecule: RGGGHRGRGGFNMRGGNFRGGAPGNRGGY [SAFA, peptide comprising the RGG repeats of HNRPU (SAFA), provided by GeneCust]

Binding of TAF15 to GST-SRPK1 in pull-down (SRPK1 [4]; increased salt, 0.3 M NaCl): reduced binding
Binding of TAF15 to GST-SRPK1 in pull-down (SRPK1 [4]; physiological ionic strength, 50–150 mM NaCl): binds SRPK1
Molecule: His-TAF15: full-length TAF15 with an 8xHis tag fused to its N-terminus
Phosphorylation of TAF15 by SRPK1 (substrate test) (SRPK1 [3]): unable to phosphorylate

Effect of TAF15 fusion proteins on SRPK1 activity (phosphorylation of GST-LBRNt(62–92)) (SRPK1 [1]): did not affect the kinase activity
Effect of TAF15 fusion proteins on SRPK1 activity (phosphorylation of GST-LBRNt(62–92)) (SRPK1 [1]; listed as GST-TAF15(1-320)): has no effect on SRPK1 activity
B1: GST-TAF15(1–320): N-terminal part (aa 1–320) of TAF15 as GST-fusion protein (protein)
chain: MSDSGSYGQSGGEQQSYSTYGNPGSQGYGQASQSYSGYGQTTDSSYGQNYSGYSSYGQSYSQSYGGYENQKQSSYSQQPYNNQGQQQNMESSGSQGGRAPSYDQPDYGQQDSYDQQSGYDQHQGSYDEQSNYDQQHDSYSQNQQSYHSQRENYSHHTQDDRRDVSRYGEDNRGYGGSQGGGRGRGGYDKDGRGPMTGSSGGDRGGFKNFGGHRDYGPRTDADSESDNSDNNTIFVQGLGEGVSTDQVGEFFKQIGIIKTNKKTGKPMINLYTDKDTGKPKGEATVSFDDPPSAKAAIDWFDGKEFHGNIIKVSFATRRPE
modifications: left off: GST, end not stated, kept
notes: N-terminal part (aa 1–320) of TAF15 as GST-fusion protein
Binding of SRPK1 from HeLa cell extracts to immobilized GST fusion protein (SRPK1 [2]): no such interaction

Continued, molecule first:

Molecule: GST-TAF15-RGG: C-terminal RGG domain (aa 319–589) of TAF15 as GST-fusion protein
Effect of TAF15 fusion proteins on SRPK1 activity (phosphorylation of GST-LBRNt(62–92)) (SRPK1 [1]): inhibited SRPK1 as potently as full-length TAF15
Binding of SRPK1 from HeLa cell extracts to immobilized GST fusion protein (SRPK1 [2]): could bind to SRPK1

Molecule: RGGNFGFGDSRGGGGNFGPGPGSNFRGG [A2B1, peptide comprising the RGG repeats of HNRNPA2B1, provided by GeneCust]
Inhibition of SRPK1 activity (phosphorylation of GST-LBRNt(62–92) by GST-SRPK1) (SRPK1 [1]): could inhibit SRPK1
Relative inhibitory activity on SRPK1 among the three RGG peptides (proportional to number of RGG repeats) (SRPK1 [1]): weaker

Molecule: GST-TAF15: full-length TAF15 as GST-fusion protein produced in bacteria
Phosphorylation of TAF15 by SRPK1 (substrate test) (SRPK1 [3]): did not modify
Effect of TAF15 fusion proteins on SRPK1 activity (phosphorylation of GST-LBRNt(62–92)) (SRPK1 [1]): inhibited the phosphorylation of GST-LBRNt(62–92) in a dose-responsive manner
